System: 653999-131-R-J2-PDC complex spheroids, growth % test/control
Assay: Anticancer human tumor 653999-131-R-J2-PDC patient-derived lung adenocarcinoma cell line growth inhibition [AhR]
Conditions: for IC50: curve of first compound; for viability, T/C: stronger effect = lower value
Description: Multicellular complex tumor spheroid response to aryl hydrocarbon receptor antagonists in combination with a variety of drugs and investigational agents in selected tumor cell lines
The current study was undertaken to assess response to aryl hydrocarbon receptor antagonists in combination with standard-of-care drugs and investigational agents in solid tumor complex spheroid models. Complex spheroids include a stromal component modeled by human endothelial cells (HUVEC) and fibroblasts modeled by human mesenchymal stem cells (MSCs). The concentration ranges selected for each drug and investigational agent were based upon clinically achievable concentrations if the clinical Cmax of the agent was known.
Compounds. The drugs and investigational agents: BAY 2416964 (NSC825713), GNF351 (NSC835774), CH-223191 (NSC835775), CPI-455 (NSC825282), aza-TdCyd (NSC777586), decitabine (NSC127716), belinostat (NSC758774), entinostat (NSC756642), pevonedistat (NSC761192), tazemetostat (NSC777109), talazoparib (NSC765396), olaparib (NSC753686), selinexor (NSC780203), nedisertib (M3814, NSC802822), bortezomib (NSC756655), venetoclax (NSC766270), doxorubicin (NSC123127), elimusertib (BAY189344, NSC800525), ceralasertib (AZD6738, NSC777638), TAK-243 (NSC785004), alisertib (NSC759677), etoposide (NSC141540), topotecan (NSC609699), eribulin (NSC707389), gemcitabine (NSC613327), carboplatin (NSC241240), cisplatin (NSC119875), and SN-38 (NSC673596) were obtained from the National Cancer Institute (NCI) Developmental Therapeutics Program Chemical Repository (32). The FDA-approved anticancer drug set is available from the Developmental Therapeutics Program at https://dtp.cancer.gov/organization/dscb/obtaining/available plates.htm. […] The stock solutions were prepared in dimethyl sulfoxide (DMSO, Sigma-Aldrich, St. Louis, MO, cat. D2650), except for the platinum compounds which were prepared in saline (Quality Biological, Gaithersburg, MD, cat. 114-055-101), at 800-fold the tested concentration and stored at -70 degrees C prior to their use. All drugs and investigational agents were tested over a range starting from a high concentration at or near the clinical Cmax and decreasing in half-log increments. If the clinical Cmax for an agent had not been determined, the highest concentration tested was 10 microM (Table 1).
Cell Culture. All cells were maintained in an incubator at 37 degrees C and 5% CO2 with 95% humidity. The PDC lines were cultured according to standard operating procedures established by the NCI PDMR (https://pdmr.cancer.gov). Briefly, all PDCs were thawed and cultured in Matrigel-coated flasks prepared with a working solution of 1X Ham's F-12 nutrient mix, without supplementation (Invitrogen, Waltham, MA, cat. 11765054), 100 U/mL penicillin-streptomycin (Invitrogen, cat. 15140122), and 2.5% Matrigel (Corning Inc., Corning, NY, cat. 354248) for the first three passages. All PDCs were cultured in complete DMEM/F-12 media containing advanced DMEM/F-12 (Invitrogen, cat. 12634028), 4.9% defined fetal bovine serum, heat inactivated (HyClone Laboratories Inc., Logan, UT, cat. SH30070.03HI), 389 ng/mL hydrocortisone (Sigma-Aldrich, cat. H4001), 9.7 ng/mL human EGF recombinant protein (Invitrogen, cat. PHG0313), 23.4 microg/mL adenine (Sigma-Aldrich, cat. A2786), 97.3 U/mL penicillin-streptomycin (Invitrogen, cat. 15140122), 1.9 mM L-glutamine (Invitrogen, cat. 25030081), and 9.7 microM Y-27632 dihydrochloride (Tocris Bioscience, Bristol, United Kingdom, cat. 1254). The PDCs were cultured in complete DMEM/F12 media without 10 microM Y-27632 dihydrochloride for at least two passages prior to the screen. The established cell lines NCI-H1341 and […] were cultured in DMEM/F-12, HEPES (Invitrogen, cat. 11330032), 5% defined fetal bovine serum (HyClone Laboratories Inc., cat. SH30070.03), ITS premix universal culture supplement [insulin (5 microg/mL), transferrin (5 microg/mL), and selenious acid (5 ng/mL)] […]

[1] = second compound 0.1 µM, first compound 0.0316 µM
[2] = second compound 0.1 µM, first compound 0.1 µM
[3] = second compound 0.316 µM, first compound 0.0316 µM
[4] = second compound 0.316 µM, first compound 0.1 µM
[5] = second compound 1 µM, first compound 0.0316 µM
[6] = second compound 1 µM, first compound 0.1 µM
[7] = second compound 3.16 µM, first compound 0.0316 µM
[8] = second compound 3.16 µM, first compound 0.1 µM
[9] = second compound 10 µM, first compound 0.0316 µM
[10] = second compound 10 µM, first compound 0.1 µM
[11] = second compound 0.1 µM, first compound 0.316 µM
[12] = second compound 0.1 µM, first compound 1 µM
[13] = second compound 0.1 µM, first compound 3.16 µM
[14] = second compound 0.1 µM, first compound 10 µM
[15] = second compound 0.316 µM, first compound 0.316 µM
[16] = second compound 0.316 µM, first compound 1 µM
[17] = second compound 0.316 µM, first compound 3.16 µM
[18] = second compound 0.316 µM, first compound 10 µM
[19] = second compound 1 µM, first compound 0.316 µM
[20] = second compound 1 µM, first compound 1 µM
[21] = second compound 1 µM, first compound 3.16 µM
[22] = second compound 1 µM, first compound 10 µM
[23] = second compound 3.16 µM, first compound 0.316 µM
[24] = second compound 3.16 µM, first compound 1 µM
[25] = second compound 3.16 µM, first compound 3.16 µM
[26] = second compound 3.16 µM, first compound 10 µM
[27] = second compound 10 µM, first compound 0.316 µM
[28] = second compound 10 µM, first compound 1 µM
[29] = second compound 10 µM, first compound 3.16 µM
[30] = second compound 10 µM, first compound 10 µM
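Note: spheroids exposed to agents for seven days.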

## CC[C@@]1(O)C(=O)OCc2c1cc1n(c2=O)Cc2cc3c(CN(C)C)c(O)ccc3nc2-1 + CC(CO)NC(=O)c1cc(-c2ccc(Cl)cc2)nn(-c2cnn(C)c2)c1=O
Second compound 0.1 µM
  IC50: 0.0367 µM
Second compound 0.316 µM
  IC50: 0.0277 µM
Second compound 1 µM
  IC50: 0.0245 µM
Second compound 3.16 µM
  IC50: 0.0229 µM
Second compound 10 µM
  IC50: 0.021 µM
Second compound 0.1 µM, first compound 0.000316 µM
  viability, T/C: 94.8%
Second compound 0.1 µM, first compound 0.001 µM
  viability, T/C: 97.8%
Second compound 0.1 µM, first compound 0.00316 µM
  viability, T/C: 94.9%
Second compound 0.1 µM, first compound 0.01 µM
  viability, T/C: 79%
[1]
  viability, T/C: 52.2%
[2]
  viability, T/C: 38.1%
Second compound 0.316 µM, first compound 0.000316 µM
  viability, T/C: 93.2%
Second compound 0.316 µM, first compound 0.001 µM
  viability, T/C: 94.4%
Second compound 0.316 µM, first compound 0.00316 µM
  viability, T/C: 97.4%
Second compound 0.316 µM, first compound 0.01 µM
  viability, T/C: 79.1%
[3]
  viability, T/C: 46.8%
[4]
  viability, T/C: 31.3%
Second compound 1 µM, first compound 0.000316 µM
  viability, T/C: 111%
Second compound 1 µM, first compound 0.001 µM
  viability, T/C: 96%
Second compound 1 µM, first compound 0.00316 µM
  viability, T/C: 99.1%
Second compound 1 µM, first compound 0.01 µM
  viability, T/C: 80.7%
[5]
  viability, T/C: 40.6%
[6]
  viability, T/C: 32.3%
Second compound 3.16 µM, first compound 0.000316 µM
  viability, T/C: 85.9%
Second compound 3.16 µM, first compound 0.001 µM
  viability, T/C: 92.3%
Second compound 3.16 µM, first compound 0.00316 µM
  viability, T/C: 95.3%
Second compound 3.16 µM, first compound 0.01 µM
  viability, T/C: 69.8%
[7]
  viability, T/C: 43.6%
[8]
  viability, T/C: 31.4%
Second compound 10 µM, first compound 0.000316 µM
  viability, T/C: 90.5%
Second compound 10 µM, first compound 0.001 µM
  viability, T/C: 95.3%
Second compound 10 µM, first compound 0.00316 µM
  viability, T/C: 83.7%
Second compound 10 µM, first compound 0.01 µM
  viability, T/C: 65.9%
[9]
  viability, T/C: 41.3%
[10]
  viability, T/C: 32.3%

## COc1cc(C2c3cc4c(cc3C(OC3OC5COC(C)OC5C(O)C3O)C3COC(=O)C23)OCO4)cc(OC)c1O (stereo not given) + CC(CO)NC(=O)c1cc(-c2ccc(Cl)cc2)nn(-c2cnn(C)c2)c1=O
Second compound 0.1 µM
  IC50: 1.27 µM
Second compound 0.316 µM
  IC50: 0.894 µM
Second compound 1 µM
  IC50: 0.944 µM
Second compound 3.16 µM
  IC50: 0.823 µM
Second compound 10 µM
  IC50: 0.846 µM
[1]
  viability, T/C: 87.5%
[2]
  viability, T/C: 79.2%
[11]
  viability, T/C: 73.9%
[12]
  viability, T/C: 51.9%
[13]
  viability, T/C: 37.8%
[14]
  viability, T/C: 28.9%
[3]
  viability, T/C: 82.3%
[4]
  viability, T/C: 85.8%
[15]
  viability, T/C: 63.5%
[16]
  viability, T/C: 48.4%
[17]
  viability, T/C: 36.5%
[18]
  viability, T/C: 26.6%
[5]
  viability, T/C: 86.5%
[6]
  viability, T/C: 80.2%
[19]
  viability, T/C: 77.2%
[20]
  viability, T/C: 48%
[21]
  viability, T/C: 34.7%
[22]
  viability, T/C: 30.2%
[7]
  viability, T/C: 79.4%
[8]
  viability, T/C: 80.9%
[23]
  viability, T/C: 72.5%
[24]
  viability, T/C: 44.1%
[25]
  viability, T/C: 42.8%
[26]
  viability, T/C: 28.8%
[9]
  viability, T/C: 83.2%
[10]
  viability, T/C: 83%
[27]
  viability, T/C: 62.6%
[28]
  viability, T/C: 49.4%
[29]
  viability, T/C: 31.6%
[30]
  viability, T/C: 25.6%

## Nc1ccn(C2OC(CO)C(O)C2(F)F)c(=O)n1 (stereo not given) + CC(CO)NC(=O)c1cc(-c2ccc(Cl)cc2)nn(-c2cnn(C)c2)c1=O
Second compound 0.1 µM
  IC50: 1.94 µM
Second compound 0.316 µM
  IC50: 3.06 µM
Second compound 1 µM
  IC50: 4.74 µM
Second compound 3.16 µM
  IC50: 1.6 µM
Second compound 10 µM
  IC50: 6.31 µM
[1]
  viability, T/C: 65.4%
[2]
  viability, T/C: 66.8%
[11]
  viability, T/C: 61.2%
[12]
  viability, T/C: 48%
[13]
  viability, T/C: 48.4%
[14]
  viability, T/C: 42.9%
[3]
  viability, T/C: 73.9%
[4]
  viability, T/C: 69.8%
[15]
  viability, T/C: 62.2%
[16]
  viability, T/C: 58.4%
[17]
  viability, T/C: 46.5%
[18]
  viability, T/C: 45.3%
[5]
  viability, T/C: 67.5%
[6]
  viability, T/C: 69.9%
[19]
  viability, T/C: 58.6%
[20]
  viability, T/C: 58.1%
[21]
  viability, T/C: 50.4%
[22]
  viability, T/C: 47.1%
[7]
  viability, T/C: 78.1%
[8]
  viability, T/C: 74%
[23]
  viability, T/C: 63.7%
[24]
  viability, T/C: 55.7%
[25]
  viability, T/C: 42.7%
[26]
  viability, T/C: 40.9%
[9]
  viability, T/C: 96.5%
[10]
  viability, T/C: 76.8%
[27]
  viability, T/C: 64.4%
[28]
  viability, T/C: 58%
[29]
  viability, T/C: 51.7%
[30]
  viability, T/C: 48.4%
